Each compound was assayed against TrkA (Homo sapiens (Human), UniProt P04629) (assay: TrkA Omnia Assay). Settings: averaged IC50; 20 nM enzyme, 500 μM ATP, 10 μM peptide substrate.
Assay type: biochemical
Summary of the method: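 Recombinant TrkA (20 nM) preincubated 10 min at ambient temperature with compound, then Omnia Tyr Peptide #4 (10 μM) and ATP (500 μM) added in 25 mM MOPS pH 7.5, 5 mM MgCl2, 0.005% Triton X-100. Fluorescence (ex 360/em 485 nm) followed continuously for 70 min; IC50 from initial rates by 4- or 5-parameter logistic fit.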

Sequence of TrkA (P04629 33-796): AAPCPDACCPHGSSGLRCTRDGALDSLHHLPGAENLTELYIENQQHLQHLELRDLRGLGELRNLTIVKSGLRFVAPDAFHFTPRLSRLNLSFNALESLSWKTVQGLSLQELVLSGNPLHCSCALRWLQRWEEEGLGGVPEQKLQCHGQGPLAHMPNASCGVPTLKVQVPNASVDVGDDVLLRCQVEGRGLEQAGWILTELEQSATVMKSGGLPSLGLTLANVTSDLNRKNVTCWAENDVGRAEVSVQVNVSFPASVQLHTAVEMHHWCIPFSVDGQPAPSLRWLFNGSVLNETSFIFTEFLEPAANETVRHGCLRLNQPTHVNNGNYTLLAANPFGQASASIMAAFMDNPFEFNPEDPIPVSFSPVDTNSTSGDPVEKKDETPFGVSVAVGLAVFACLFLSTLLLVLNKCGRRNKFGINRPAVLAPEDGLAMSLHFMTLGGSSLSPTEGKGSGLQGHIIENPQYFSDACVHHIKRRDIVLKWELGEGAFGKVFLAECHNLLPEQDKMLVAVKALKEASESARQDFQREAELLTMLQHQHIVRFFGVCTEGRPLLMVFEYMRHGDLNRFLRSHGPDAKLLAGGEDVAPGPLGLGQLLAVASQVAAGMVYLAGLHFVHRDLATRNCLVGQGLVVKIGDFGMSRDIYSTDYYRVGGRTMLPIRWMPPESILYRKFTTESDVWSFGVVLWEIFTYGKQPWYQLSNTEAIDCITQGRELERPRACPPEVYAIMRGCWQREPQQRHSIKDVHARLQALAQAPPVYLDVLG

`COCCN1C[C@@H](NC(=O)Nc2c(C)c(=O)[nH]n2-c2ccccc2)[C@H](c2ccc(F)c(Cl)c2)C1` (relative stereo) [Example 610, 1-((trans)-4-(3-chloro-4-fluorophenyl)-1-(2-methoxyethyl)pyrrolidin-3-yl)-3-(4-methyl-5-oxo-2-phenyl-2,5-dihydro-1H-pyrazol-3-yl)urea] and `COCCN1C[C@@H](NC(=O)Nc2c(C)c(=O)[nH]n2-c2ccccc2)[C@H](c2cc(F)cc(Cl)c2)C1` (relative stereo) [Example 614, 1-((trans)-4-(3-chloro-5-fluorophenyl)-1-(2-methoxyethyl)pyrrolidin-3-yl)-3-(4-methyl-5-oxo-2-phenyl-2,5-dihydro-1H-pyrazol-3-yl)urea] cannot be ordered by IC50: under 100 nM for the first, under 100 nM for the second.

`COCCN1C[C@@H](NC(=O)Nc2c(C(N)=O)c(C)nn2-c2ccccc2)[C@H](c2ccc(F)c(Cl)c2)C1` (relative stereo) [Example 623, 5-(3-((trans)-4-(3-chloro-4-fluorophenyl)-1-(2-methoxyethyl)pyrrolidin-3-yl)ureido)-3-methyl-1-phenyl-1H-pyrazole-4-carboxamide] and `COCCN1C[C@@H](NC(=O)Nc2c(C(N)=O)c(C)nn2-c2ccccc2)[C@H](c2ccc(Cl)c(F)c2)C1` (relative stereo) [Example 624, 5-(3-((trans)-4-(4-chloro-3-fluorophenyl)-1-(2-methoxyethyl)pyrrolidin-3-yl)ureido)-3-methyl-1-phenyl-1H-pyrazole-4-carboxamide] cannot be ordered by IC50: under 100 nM for the first, under 100 nM for the second.

`COCCN1C[C@@H](NC(=O)Nc2c(C(N)=O)c(C)nn2-c2ccccc2)[C@H](c2cc(F)cc(Cl)c2)C1` (relative stereo) [Example 625, 5-(3-((trans)-4-(3-chloro-5-fluorophenyl)-1-(2-methoxyethyl)pyrrolidin-3-yl)ureido)-3-methyl-1-phenyl-1H-pyrazole-4-carboxamide] and `COCCN1C[C@@H](NC(=O)Nc2c3c(nn2-c2ccccc2)C(C)(C)CC3)[C@H](c2ccccc2)C1` [Example 36, 1-(6,6-dimethyl-2-phenyl-2,4,5,6-tetrahydro-yclopenta [c]pyrazol-3-yl)-3-(trans-1-(2-methoxyethyl)-4-phenyl-pyrrolidin-3-yl)urea] cannot be ordered by IC50: under 100 nM for the first, under 100 nM for the second.

`COCCN1C[C@@H](NC(=O)Nc2c3c(nn2-c2ccccc2)CCC3)[C@H](c2nccs2)C1` (stereo in doubt) [Example 49, 1-(1-(2-methoxyethyl)-4-(thiazol-2-yl)pyrrolidin-3-yl)-3-(2-phenyl-2,4,5,6-tetrahydrocyclopenta[c]pyrazol-3-yl)urea] and `COCCN1CC(c2sc(C)nc2C)[C@H](NC(=O)Nc2c3c(nn2-c2ccccc2)CCC3)C1` (stereo partly drawn) [Example 45, 1-((3,4-trans)-4-(2,4-dimethylthiazol-5-yl)-1-(2-methoxyethyl)pyrrolidin-3-yl)-3-(2-phenyl-2,4,5,6-tetrahydrocyclopenta[c]pyrazol-3-yl)urea] fall in the same range of IC50: 1000 to 10000 nM for the first, 1000 to 10000 nM for the second.

`COCC(C(=O)OC)N1CC(NC(=O)Nc2c3c(nn2-c2ccccc2)CCC3)[C@H](c2ccccc2)C1` (stereo in doubt) [Example 258, methyl 3-methoxy-2-((trans)-3-phenyl-4-(3-(2-phenyl-2,4,5,6-tetrahydrocyclopenta[c]pyrazol-3-yl)ureido)pyrrolidin-1-yl)propanoate] and `COCCN1C[C@@H](NC(=O)Nc2cc(C(C)(C)C)nn2-c2ccccc2)[C@H](c2ccccc2)C1` [Example 1, 1-(3-tert-butyl-1-phenyl-H-pyrazol-5-yl)-3-(trans-1-(2-methoxyethyl)-4-phenylpyrrolidin-3-yl)urea] cannot be ordered by IC50: under 100 nM for the first, under 100 nM for the second.

For `COCCN1C[C@@H](NC(=O)Nc2cc(C(C)(C)C)nn2C2CCOCC2)[C@H](c2ccccc2)C1` [Example 34, 1-(3-tert-butyl-1-(tetrahyro-2H-pyran-4-yl)-1H-pyrazol-5-yl)-3-(trans-1-(2-methoxyethyl)-4-phenylpyrrolidin-3-yl)urea], the IC50 was 1000 to 10000 nM.
